# According to patent US20230143604A1, “QW DOSING OF GIP RECEPTOR AGONIST PEPTIDE COMPOUNDS AND USES THEREOF” (TAKEDA PHARMACEUTICAL COMPANY LIMITED, priority 2020, published 2023):
# Tests used:
# [1] = test system: C57BL/6J mice; assay: Oral glucose tolerance test (OGTT); type: in vivo; settings: 3 nmol/kg s.c., 24 hours before glucose loading
# Method: An oral glucose tolerance test (OGTT) was carried out using C57BL/6J mice with a 50% dextrose solution dosed at 5 ml/kg. Testing concentrations of 0.1 nmol/kg, 0.3 nmmol/kg, 3 nmol/kg or 10 nmol/kg were selected depending on the peptide. Each peptide or a vehicle (control group) was subcutaneously administered 24 hours (unless shown otherwise) before glucose loading and the blood glucose was measured at 0, 15, 30, and 60 minutes after glucose dosing.
# % inhibition=(1−(AUC cpd−AUC naïve/AUC veh−AUC naïve))×100.
# [2] = Solubility in phosphate buffer pH 7.4
# How it was run: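 Solubility at pH 7.4 determined by stepwise addition of 200 mM phosphate buffer in 100 μL increments to 3 mg peptide, mixing briefly each time, until no insoluble material remained, then measured by liquid chromatography.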
# [3] = pH 7.4, aqueous buffer, pH 7.4 Phosphate Buffer - Solubility, 200 mM Phosphate buffer pH 7.4
# [4] = pH 7.4, solubility in phosphate buffer at pH 7.4, 200 mM phosphate buffer pH 7.4
Compound,Oral Glucose Tolerance Test Percent decrease in blood glucose AUC (%) over 60 mins [1],"solubility [2, 3] [mg/mL]","solubility [2, 4] [mg/mL]",solubility ([2]; pH 7.4) [mg/mL],"solubility ([2]; pH 7.4, aqueous buffer) [mg/mL]"
CC[C@H](C)[C@H](NC(=O)[C@H](Cc1ccccc1)NC(=O)[C@@H](NC(=O)CNC(=O)[C@H](CCC(=O)O)NC(=O)C(C)(C)NC(=O)[C@H](Cc1ccc(O)cc1)NC)[C@@H](C)O)C(=O)N[C@@H](CO)C(=O)N[C@@H](CC(=O)O)C(=O)N[C@@H](Cc1ccc(O)cc1)C(=O)N[C@@H](CO)C(=O)N[C@H](C(=O)NC(C)(C)C(=O)N[C@@H](CCCCNC(=O)CNC(=O)CNC(=O)CNC(=O)CNC(=O)CNC(=O)CCCCCCCCCCCCCCCCC(=O)O)C(=O)N[C@@H](CC(=O)O)C(=O)N[C@@H](CCCNC(=N)N)C(=O)NC(C)(C)C(=O)N[C@@H](C)C(=O)N[C@@H](CCC(N)=O)C(=O)NC(C)(C)C(=O)N[C@@H](CC(=O)O)C(=O)N[C@@H](Cc1ccccc1)C(=O)N[C@H](C(=O)N[C@@H](CC(N)=O)C(=O)N[C@@H](Cc1c[nH]c2ccccc12)C(=O)N[C@@H](CC(C)C)C(=O)N[C@@H](CC(C)C)C(=O)N[C@@H](C)C(=O)N[C@@H](CCC(N)=O)C(=O)N[C@@H](CO)C(=O)N1CCC[C@H]1C(=O)N[C@@H](CO)C(=O)N[C@@H](CO)C(=O)NCC(=O)N[C@@H](C)C(=O)N1CCC[C@H]1C(=O)N1CCC[C@H]1C(=O)N1CCC[C@H]1C(=O)N[C@@H](CO)C(=O)O)C(C)C)[C@@H](C)CC [Compound 47],48% (3 nmol/kg),≥ 30,≥ 15,,
CC[C@H](C)[C@H](NC(=O)[C@H](CO)NC(=O)[C@H](Cc1ccc(O)cc1)NC(=O)[C@H](CC(=O)O)NC(=O)[C@H](CO)NC(=O)[C@@H](NC(=O)[C@H](Cc1ccccc1)NC(=O)[C@@H](NC(=O)CNC(=O)[C@H](CCC(=O)O)NC(=O)C(C)(C)NC(=O)[C@@H](N)Cc1ccc(O)cc1)[C@@H](C)O)[C@@H](C)CC)C(=O)N[C@@H](C)C(=O)N[C@@H](CCCCNC(=O)CNC(=O)CNC(=O)CNC(=O)CNC(=O)CNC(=O)CCCCCCCCCCCCCCCCC(=O)O)C(=O)N[C@@H](CC(=O)O)C(=O)N[C@@H](CCCNC(=N)N)C(=O)NC(C)(C)C(=O)N[C@@H](C)C(=O)N[C@@H](CCC(N)=O)C(=O)NC(C)(C)C(=O)N[C@@H](CC(N)=O)C(=O)N[C@@H](Cc1ccccc1)C(=O)N[C@H](C(=O)N[C@@H](CC(N)=O)C(=O)N[C@@H](Cc1c[nH]c2ccccc12)C(=O)N[C@@H](CC(C)C)C(=O)N[C@@H](CC(C)C)C(=O)N[C@@H](C)C(=O)N[C@@H](CCC(N)=O)C(=O)N[C@@H](CO)C(=O)N1CCC[C@H]1C(=O)N[C@@H](CO)C(=O)N[C@@H](CO)C(=O)NCC(=O)N[C@@H](C)C(=O)N1CCC[C@H]1C(=O)N1CCC[C@H]1C(=O)N1CCC[C@H]1C(=O)N[C@@H](CO)C(=O)O)C(C)C [Compound 138],80% (3 nmol/kg),≥ 30,≥ 15,,
CC[C@H](C)[C@H](NC(=O)[C@H](Cc1ccccc1)NC(=O)[C@@H](NC(=O)CNC(=O)[C@H](CCC(=O)O)NC(=O)C(C)(C)NC(=O)[C@H](Cc1ccc(O)cc1)NC)[C@@H](C)O)C(=O)N[C@@H](CO)C(=O)N[C@@H](CC(=O)O)C(=O)N[C@@H](Cc1ccc(O)cc1)C(=O)N[C@@H](CO)C(=O)N[C@H](C(=O)NC(C)(C)C(=O)N[C@@H](CCCCNC(=O)CNC(=O)CNC(=O)CNC(=O)CNC(=O)CNC(=O)CCCCCCCCCCCCCCCCC(=O)O)C(=O)N[C@@H](CC(=O)O)C(=O)N[C@@H](CCCNC(=N)N)C(=O)NC(C)(C)C(=O)N[C@@H](C)C(=O)N[C@@H](CCC(N)=O)C(=O)NC(C)(C)C(=O)N[C@@H](CC(=O)O)C(=O)N[C@@H](Cc1ccccc1)C(=O)N[C@H](C(=O)N[C@@H](CC(N)=O)C(=O)N[C@@H](Cc1c[nH]c2ccccc12)C(=O)N[C@@H](CC(C)C)C(=O)N[C@@H](CC(C)C)C(=O)N[C@@H](C)C(=O)N[C@@H](CCC(N)=O)C(=O)N[C@@H](CCCNC(=N)N)C(=O)N1CCC[C@H]1C(=O)N[C@@H](CO)C(=O)N[C@@H](CO)C(=O)NCC(=O)N[C@@H](C)C(=O)N1CCC[C@H]1C(=O)N1CCC[C@H]1C(=O)N1CCC[C@H]1C(=O)N[C@@H](CO)C(=O)O)C(C)C)[C@@H](C)CC [Compound 54],43% (3 nmol/kg),≥ 30,≥ 15,,
CC[C@H](C)[C@H](NC(=O)[C@H](CO)NC(=O)[C@H](Cc1ccc(O)cc1)NC(=O)[C@H](CC(=O)O)NC(=O)[C@H](CO)NC(=O)[C@@H](NC(=O)[C@H](Cc1ccccc1)NC(=O)[C@@H](NC(=O)CNC(=O)[C@H](CCC(=O)O)NC(=O)C(C)(C)NC(=O)[C@H](Cc1ccc(O)cc1)NC)[C@@H](C)O)[C@@H](C)CC)C(=O)N[C@@H](C)C(=O)N[C@@H](CCCCNC(=O)CNC(=O)CNC(=O)CNC(=O)CNC(=O)CNC(=O)CCCCCCCCCCCCCCCCC(=O)O)C(=O)N[C@@H](CC(=O)O)C(=O)N[C@@H](CCCNC(=N)N)C(=O)NC(C)(C)C(=O)N[C@@H](C)C(=O)N[C@@H](CCC(N)=O)C(=O)NC(C)(C)C(=O)N[C@@H](CC(=O)O)C(=O)N[C@@H](Cc1ccccc1)C(=O)N[C@H](C(=O)N[C@@H](CC(N)=O)C(=O)N[C@@H](Cc1c[nH]c2ccccc12)C(=O)N[C@@H](CC(C)C)C(=O)N[C@@H](CC(C)C)C(=O)N[C@@H](C)C(=O)N[C@@H](CCC(N)=O)C(=O)N[C@@H](CCCNC(=N)N)C(=O)NCC(=O)O)C(C)C [Compound 63],41% (3 nmol/kg),,,≥ 15,
CC[C@H](C)[C@H](NC(=O)[C@H](Cc1ccccc1)NC(=O)[C@@H](NC(=O)CNC(=O)[C@H](CCC(=O)O)NC(=O)C(C)(C)NC(=O)[C@@H](N)Cc1ccc(O)cc1)[C@@H](C)O)C(=O)N[C@@H](CO)C(=O)N[C@@H](CC(=O)O)C(=O)N[C@@H](Cc1ccc(O)cc1)C(=O)N[C@@H](CO)C(=O)N[C@H](C(=O)NC(C)(C)C(=O)N[C@@H](CCCCNC(=O)CNC(=O)CNC(=O)CNC(=O)CNC(=O)CNC(=O)CCCCCCCCCCCCCCCCC(=O)O)C(=O)N[C@@H](CC(=O)O)C(=O)N[C@@H](CCCNC(=N)N)C(=O)NC(C)(C)C(=O)N[C@@H](C)C(=O)N[C@@H](CCC(N)=O)C(=O)N[C@@H](C)C(=O)N[C@@H](CC(=O)O)C(=O)N[C@@H](Cc1ccccc1)C(=O)N[C@H](C(=O)N[C@@H](CCC(=O)O)C(=O)N[C@@H](Cc1c[nH]c2ccccc12)C(=O)N[C@@H](CC(C)C)C(=O)N[C@@H](CC(C)C)C(=O)N[C@@H](C)C(=O)N[C@@H](CCC(N)=O)C(=O)N[C@@H](CCCNC(=N)N)C(=O)NCC(=O)O)C(C)C)[C@@H](C)CC [Compound 146],52% (3 nmol/kg),,,≥ 15,≥ 30
CC[C@H](C)[C@H](NC(=O)[C@H](Cc1ccccc1)NC(=O)[C@@H](NC(=O)CNC(=O)[C@H](CCC(=O)O)NC(=O)C(C)(C)NC(=O)[C@H](Cc1ccc(O)cc1)NC)[C@@H](C)O)C(=O)N[C@@H](CO)C(=O)N[C@@H](CC(=O)O)C(=O)N[C@@H](Cc1ccc(O)cc1)C(=O)N[C@@H](CO)C(=O)N[C@H](C(=O)NC(C)(C)C(=O)N[C@@H](CCCCNC(=O)CNC(=O)CNC(=O)CNC(=O)CNC(=O)CNC(=O)CCCCCCCCCCCCCCCCC(=O)O)C(=O)N[C@@H](CC(=O)O)C(=O)N[C@@H](CCCNC(=N)N)C(=O)NC(C)(C)C(=O)N[C@@H](C)C(=O)N[C@@H](CCC(N)=O)C(=O)NC(C)(C)C(=O)N[C@@H](CC(N)=O)C(=O)N[C@@H](Cc1ccccc1)C(=O)N[C@H](C(=O)N[C@@H](CC(N)=O)C(=O)N[C@@H](Cc1c[nH]c2ccccc12)C(=O)N[C@@H](CC(C)C)C(=O)N[C@@H](CC(C)C)C(=O)N[C@@H](C)C(=O)N[C@@H](CCC(N)=O)C(=O)N[C@@H](CO)C(=O)N1CCC[C@H]1C(=O)N[C@@H](CO)C(=O)N[C@@H](CO)C(=O)NCC(=O)N[C@@H](C)C(=O)N1CCC[C@H]1C(=O)N1CCC[C@H]1C(=O)N1CCC[C@H]1C(=O)N[C@@H](CO)C(=O)O)C(C)C)[C@@H](C)CC [Compound 96],80% (3 nmol/kg),≥ 60,≥ 15,,
CC[C@H](C)[C@H](NC(=O)[C@H](Cc1ccccc1)NC(=O)[C@@H](NC(=O)CNC(=O)[C@H](CCC(=O)O)NC(=O)C(C)(C)NC(=O)[C@@H](N)Cc1ccc(O)cc1)[C@@H](C)O)C(=O)N[C@@H](CO)C(=O)N[C@@H](CC(=O)O)C(=O)N[C@@H](Cc1ccc(O)cc1)C(=O)N[C@@H](CO)C(=O)N[C@H](C(=O)NC(C)(C)C(=O)N[C@@H](CCCCNC(=O)CNC(=O)CNC(=O)CNC(=O)CNC(=O)CNC(=O)CCCCCCCCCCCCCCCCC(=O)O)C(=O)N[C@@H](CC(=O)O)C(=O)N[C@@H](CCCNC(=N)N)C(=O)N[C@@H](C)C(=O)N[C@@H](C)C(=O)N[C@@H](CCC(N)=O)C(=O)N[C@@H](C)C(=O)N[C@@H](CC(=O)O)C(=O)N[C@@H](Cc1ccccc1)C(=O)N[C@H](C(=O)N[C@@H](CCC(=O)O)C(=O)N[C@@H](Cc1c[nH]c2ccccc12)C(=O)N[C@@H](CC(C)C)C(=O)N[C@@H](CC(C)C)C(=O)N[C@@H](C)C(=O)N[C@@H](CCC(N)=O)C(=O)N[C@@H](CCCNC(=N)N)C(=O)NCC(=O)O)C(C)C)[C@@H](C)CC [Compound 148],51% (3 nmol/kg),,,≥ 15,≥ 30
